From ChEMBL document CHEMBL1155519, “Discovery of N-phenyl-4-(thiazol-5-yl)pyrimidin-2-amine aurora kinase inhibitors” (J Med Chem, 2010)
Values after ≈ are worked out from the molar mass of the structure shown. Active and inactive are the calls of the source. No cut-off for these calls is given here.

Assays:
Aurora kinase A = target: T1, Aurora kinase A (Homo sapiens, UniProt O14965); assay: Inhibition of human recombinant Aurora A after 30 mins
T1 sequence (O14965 whole entry): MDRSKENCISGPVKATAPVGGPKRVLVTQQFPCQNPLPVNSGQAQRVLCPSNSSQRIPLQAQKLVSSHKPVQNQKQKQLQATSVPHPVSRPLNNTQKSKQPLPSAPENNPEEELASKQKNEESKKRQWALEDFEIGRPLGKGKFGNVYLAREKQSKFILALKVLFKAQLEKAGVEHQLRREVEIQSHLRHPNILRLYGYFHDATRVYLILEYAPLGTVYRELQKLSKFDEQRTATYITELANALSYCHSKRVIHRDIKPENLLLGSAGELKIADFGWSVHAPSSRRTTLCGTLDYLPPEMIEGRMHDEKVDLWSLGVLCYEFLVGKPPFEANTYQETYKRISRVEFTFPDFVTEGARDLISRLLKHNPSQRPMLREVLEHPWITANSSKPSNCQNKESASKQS

[1] = target: Cyclin-dependent kinase 1 (Homo sapiens, UniProt P06493); assay: Inhibition of CDK1
Cyclin-dependent kinase 1, sequence (P06493 whole entry): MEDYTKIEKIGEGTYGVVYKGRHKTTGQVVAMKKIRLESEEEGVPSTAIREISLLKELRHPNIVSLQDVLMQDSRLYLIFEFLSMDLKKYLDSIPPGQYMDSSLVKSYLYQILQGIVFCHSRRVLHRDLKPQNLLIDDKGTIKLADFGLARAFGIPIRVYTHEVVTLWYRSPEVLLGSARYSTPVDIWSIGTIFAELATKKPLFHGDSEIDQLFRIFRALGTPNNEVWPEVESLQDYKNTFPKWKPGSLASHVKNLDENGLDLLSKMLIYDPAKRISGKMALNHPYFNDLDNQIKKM

[2] = target: Cyclin-dependent kinase 9 (Homo sapiens, UniProt P50750); assay: Inhibition of CDK9
Cyclin-dependent kinase 9, sequence (P50750 whole entry): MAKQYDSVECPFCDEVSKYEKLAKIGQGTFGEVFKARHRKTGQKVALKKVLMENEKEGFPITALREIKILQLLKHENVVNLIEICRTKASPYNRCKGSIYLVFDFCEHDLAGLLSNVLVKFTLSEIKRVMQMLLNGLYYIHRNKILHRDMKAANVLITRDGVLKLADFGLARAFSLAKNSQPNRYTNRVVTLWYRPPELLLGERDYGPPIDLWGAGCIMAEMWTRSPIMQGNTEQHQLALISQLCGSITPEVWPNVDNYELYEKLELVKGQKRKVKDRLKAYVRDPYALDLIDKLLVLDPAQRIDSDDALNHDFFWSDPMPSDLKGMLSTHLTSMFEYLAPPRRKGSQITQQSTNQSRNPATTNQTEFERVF

[3] = target: Cyclin-dependent kinase 4 (Homo sapiens, UniProt P11802); assay: Inhibition of CDK4
Cyclin-dependent kinase 4, sequence (P11802 whole entry): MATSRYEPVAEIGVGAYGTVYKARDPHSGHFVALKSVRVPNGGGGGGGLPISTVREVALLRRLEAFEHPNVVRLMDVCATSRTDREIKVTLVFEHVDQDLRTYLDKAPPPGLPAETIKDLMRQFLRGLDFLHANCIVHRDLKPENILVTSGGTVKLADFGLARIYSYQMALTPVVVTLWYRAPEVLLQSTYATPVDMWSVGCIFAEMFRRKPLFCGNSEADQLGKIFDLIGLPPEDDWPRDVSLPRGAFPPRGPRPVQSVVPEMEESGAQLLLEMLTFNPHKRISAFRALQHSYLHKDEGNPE

[4] = Inhibition of Aurora kinase in human A549 cells assessed as concentration required for half-maximal inhibition of histone H3 serine-10 phosphorylation after 7 hrs immunofluorescence microscopy; type: cell-based; details: A549, 7 h
MIA PaCa-2 = assay: Cytotoxicity against human MIAPaCa2 cells after 96 hrs by MTT assay; type: functional, cell-based; details: MIA PaCa-2, 96 h
Aurora kinase B = Aurora kinase B (Homo sapiens, UniProt Q96GD4); assay: Inhibition of human recombinant Aurora B after 60 mins
Aurora kinase B, sequence (Q96GD4 whole entry): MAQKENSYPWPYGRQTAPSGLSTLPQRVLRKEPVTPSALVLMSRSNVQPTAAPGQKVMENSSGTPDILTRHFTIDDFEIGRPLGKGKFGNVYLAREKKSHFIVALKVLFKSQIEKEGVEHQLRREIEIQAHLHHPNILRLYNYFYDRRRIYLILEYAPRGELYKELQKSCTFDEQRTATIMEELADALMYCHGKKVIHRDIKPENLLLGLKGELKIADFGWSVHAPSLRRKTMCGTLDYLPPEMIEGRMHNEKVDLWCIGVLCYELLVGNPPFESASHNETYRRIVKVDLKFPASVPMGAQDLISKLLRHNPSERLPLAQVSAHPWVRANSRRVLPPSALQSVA

[5] = target: Cyclin-dependent kinase 2 (Homo sapiens, UniProt P24941)
[6] = target: Cyclin-dependent kinase 7 (Homo sapiens, UniProt P50613); assay: Inhibition of CDK7
Cyclin-dependent kinase 7, sequence (P50613 whole entry): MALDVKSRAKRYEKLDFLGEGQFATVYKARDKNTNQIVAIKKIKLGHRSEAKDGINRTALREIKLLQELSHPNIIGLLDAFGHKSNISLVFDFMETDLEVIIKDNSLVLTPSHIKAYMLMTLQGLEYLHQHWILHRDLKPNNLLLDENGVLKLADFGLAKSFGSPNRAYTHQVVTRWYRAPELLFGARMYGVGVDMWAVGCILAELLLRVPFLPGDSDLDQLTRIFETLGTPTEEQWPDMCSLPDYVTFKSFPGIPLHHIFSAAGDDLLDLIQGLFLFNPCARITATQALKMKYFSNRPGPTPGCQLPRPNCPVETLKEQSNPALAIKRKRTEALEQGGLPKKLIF

A2780 = assay: Cytotoxicity against human A2780 cells after 96 hrs by MTT assay; type: functional, cell-based; details: A2780, 96 h
[7] = Elimination half life in Wistar rat at 10 mg/kg, po by LC/MS/MS analysis; type: ADME, organism-based; parameters: dose 10 mg/kg, route oral; details: in vivo, read-out: beta t1/2 (converted)
U2OS [8] = assay: Inhibition of Aurora kinase in nocodazole-synchronized human U2OS cells assessed as reduction of histone H3 serine-10 phosphorylation at 0.07 to 10 uM after 2 hrs immunofluorescence microscopy; type: cell-based
K562 = assay: Cytotoxicity against human K562 cells after 96 hrs by MTT assay; type: functional, cell-based; details: K562, 96 h
HT-29 = assay: Cytotoxicity against human HT-29 cells after 96 hrs by MTT assay; type: functional, cell-based; details: HT-29, 96 h
[9] = Octanol-aqueous buffer partition coefficient, log D at pH 7.4 by shake-flask method; type: physicochemical
[10] = Fraction unbound in rat plasma by equilibrium dialysis; type: ADME, cell-free
[11] = Aqueous solubility by turbidimetric analysis; type: physicochemical
Liver microsomes = assay: Intrinsic clearance in rat liver microsomes by LC/MS/MS analysis; type: ADME, Microsome
[12] = Clearance in Wistar rat at 10 mg/kg, po after 24 hrs by LC/MS/MS analysis; type: ADME, organism-based; parameters: dose 10 mg/kg, route oral; details: in vivo
[13] = Half life in rat liver microsomes by LC/MS/MS analysis; type: ADME, Microsome
[14] = Cytotoxicity against human MESSA cells after 96 hrs by MTT assay; type: functional, cell-based; details: MES-SA
NCI-H460 = assay: Cytotoxicity against human NCI-H460 cells after 96 hrs by MTT assay; type: functional, cell-based; details: NCI-H460, 96 h
BXPC-3 = assay: Cytotoxicity against human BxPC3 cells after 96 hrs by MTT assay; type: functional, cell-based; details: BXPC-3, 96 h
A549 [15] = assay: Cell cycle arrest in asynchronous human A549 cells assessed as accumulation of cyclin B-negative diploid cells at G1 phase at 0.5 uM after 24 hrs by FACS analysis; type: functional, cell-based
HeLa = assay: Cytotoxicity against human HeLa cells after 96 hrs by MTT assay; type: functional, cell-based
[16] = Cmax in Wistar rat at 10 mg/kg, po after 24 hrs by LC/MS/MS analysis; type: ADME, organism-based; parameters: dose 10 mg/kg, route oral; details: in vivo
SAOS-2 = assay: Cytotoxicity against human Saos2 cells after 96 hrs by MTT assay; type: functional, cell-based; details: SAOS-2, 96 h
[17] = AUC (0 to 24 hrs) in Wistar rat at 10 mg/kg, po after 24 hrs by LC/MS/MS analysis; type: ADME, organism-based; parameters: time < 24 hr, dose 10 mg/kg, route oral; details: plasma
[18] = Dissociation constant, pKa by pH-metric titration method; type: physicochemical
A549 [19] = assay: Cell cycle arrest in asynchronous human A549 cells assessed as accumulation of cyclin B-positive tetraploid cells at G2/M phase at 0.5 to 2 uM after 7 hrs by FACS analysis; type: functional, cell-based
A549 [20] = assay: Effect on mitotic index in asynchronous human A549 cells assessed as appearance of misaligned chromosomes with shortened spindle fibres at 0.5 uM after 8 hrs […]; type: functional, cell-based
HL-60 = assay: Cytotoxicity against human HL60 cells after 96 hrs by MTT assay; type: functional, cell-based; details: HL-60, 96 h
MV4-11 = assay: Cytotoxicity against human MV4-11 cells after 96 hrs by MTT assay; type: functional, cell-based; details: MV4-11, 96 h
[21] = Apparent permeability across human Caco-2 cell membrane; type: ADME, cell-based
HuP-T4 = assay: Cytotoxicity against human HUPT4 cells after 96 hrs by MTT assay; type: functional, cell-based; details: HuP-T4, 96 h
CCRF-CEM = assay: Cytotoxicity against human CCRF-CEM cells after 96 hrs by MTT assay; type: functional, cell-based
[22] = Oral bioavailability in Wistar rat at 10 mg/kg after 24 hrs by LC/MS/MS analysis; type: ADME, organism-based; details: in vivo
COLO 205 = assay: Cytotoxicity against human COLO205 cells after 96 hrs by MTT assay; type: functional, cell-based; details: COLO 205, 96 h
A549 [23] = assay: Cell cycle arrest in asynchronous human A549 cells assessed as accumulation of cyclin B-negative diploid and tetraploid cells at G1 phase at 2 uM after 24 hrs by FACS analysis; type: functional, cell-based
HCT-116 = assay: Cytotoxicity against human HCT116 cells after 96 hrs by MTT assay; type: functional, cell-based; details: HCT-116, 96 h
MCF7 [24] = assay: Induction of p53 protein expression in human MCF7 cells at 0.07 to 10 uM after 7 hrs by fluorescent microscopy; type: functional, cell-based
U2OS [25] = assay: Inhibition of Aurora kinase in asynchronous human U2OS cells assessed as reduction of histone H3 serine-10 phosphorylation at 150 nM after 7 hrs immunofluorescence microscopy; type: cell-based
MCF7 [26] = assay: Induction of p53 protein expression in human MCF7 cells at 150 nM after 7 hrs by fluorescent microscopy; type: functional, cell-based

Work on `CCNc1nc(C)c(-c2ccnc(Nc3ccc(CNC(C)=O)cc3)n2)s1` yielded a Ki (Aurora kinase A) of 5 nM, a Ki [1] of 240 nM and a Ki [2] of 9 nM. For the same compound, the Ki [3] was 38 nM, the IC50 [4] was 760 nM and the IC50 (MIA PaCa-2) was 230 nM. It also gave a Ki (Aurora kinase B) of 4 nM, a Ki [5] of 32 nM and a Ki [6] of 171 nM. For the same compound, the IC50 (A2780) was 81 nM.

With `Cc1nc(C)c(-c2ccnc(Nc3ccc(N(C)C)cc3)n2)s1` the half-life [7] was 4.4 h, the inhibition (U2OS [8]) was “Active” and the IC50 (K562) was 40 nM. The IC50 (HT-29) was 128 nM, the Ki (Aurora kinase A) was 6.9 nM and the logD [9] was 1.33. It also gave a fraction unbound [10] of 0.96, a solubility kinetic [11] of 20 µM (≈ 6.51 µg/mL) and a Ki [1] of 2520 nM. The clearance (Liver microsomes) was 296 µL/min/mg, the CL/F [12] was 70 mL/min/kg and the half-life [13] was 4.7 min. It also gave a Ki [2] of 575 nM, an IC50 [14] of 110 nM and an IC50 (NCI-H460) of 180 nM. The IC50 [4] was 2600 nM, the IC50 (BXPC-3) was 93 nM and the Activity (A549 [15]) was “Active”. It also gave an IC50 (HeLa) of 190 nM, a Cmax [16] of 900 nM and an IC50 (SAOS-2) of 320 nM. For the same compound, the AUC(0-t) at 24 h [17] was 6.9 µM·h, the IC50 (MIA PaCa-2) was 177 nM and the pKa [18] was 5.5. For the same compound, the Activity (A549 [19]) was “Active”, the Activity (A549 [20]) was “Active” and the Ki (Aurora kinase B) was 15 nM. For the same compound, the IC50 (HL-60) was 128 nM, the IC50 (MV4-11) was 110 nM and the Papp [21] was 49.2 ×10⁻⁶ cm/s. It also gave an IC50 (HuP-T4) of 156 nM, an IC50 (CCRF-CEM) of 170 nM and a bioavailability [22] of 7%. For the same compound, the IC50 (COLO 205) was 84 nM, the Activity (A549 [23]) was “Active” and the IC50 (HCT-116) was 133 nM. It also gave a Ki [6] of 4010 nM and an IC50 (A2780) of 157 nM.

For `CCNc1nc(C)c(-c2ccnc(Nc3cc(OC)c(OC)c(OC)c3)n2)s1`, the inhibition (U2OS [8]) was “Active”, the Ki (Aurora kinase A) was 3 nM and the Ki [1] was 1220 nM. The Ki [2] was 564 nM, the Ki [3] was > 10000 nM and the Activity (MCF7 [24]) was “inactive”. The Activity (U2OS [25]) was “inactive”, the IC50 [4] was 1880 nM and the IC50 (MIA PaCa-2) was 994 nM. The Ki (Aurora kinase B) was 6 nM, the Ki [5] was 463 nM and the Ki [6] was 1390 nM. It also gave an IC50 (A2780) of 389 nM.

With `CNc1nc(C)c(-c2ccnc(Nc3ccc(N4CCOCC4)cc3)n2)s1` the inhibition (U2OS [8]) was “Active”, the Ki (Aurora kinase A) was 19 nM and the Ki [1] was 3930 nM. The Ki [2] was 2610 nM, the Ki [3] was 943 nM and the Activity (MCF7 [24]) was “inactive”. For the same compound, the Activity (U2OS [25]) was “inactive”, the IC50 [4] was 3700 nM and the IC50 (MIA PaCa-2) was 273 nM. For the same compound, the Ki (Aurora kinase B) was 9.4 nM, the Ki [5] was 156 nM and the Ki [6] was > 10000 nM. The IC50 (A2780) was 144 nM.

For `CCNc1nc(C)c(-c2ccnc(Nc3ccc(N4CCOCC4)cc3)n2)s1`, the inhibition (U2OS [8]) was “Active”, the Ki (Aurora kinase A) was 14 nM and the Ki [1] was > 10000 nM. For the same compound, the Ki [2] was 559 nM, the Ki [3] was 196 nM and the Activity (MCF7 [24]) was “inactive”. The Activity (U2OS [25]) was “inactive”, the IC50 [4] was 570 nM and the IC50 (MIA PaCa-2) was 173 nM. The Ki (Aurora kinase B) was 6 nM, the Ki [5] was 151 nM and the Ki [6] was > 10000 nM. It also gave an IC50 (A2780) of 81 nM.

For `CC(=O)N1CCN(c2ccc(Nc3nccc(-c4sc(C)nc4C)n3)cc2)CC1`, the Ki (Aurora kinase A) was 8.2 nM, the Ki [1] was 1890 nM and the Ki [2] was 1150 nM. It also gave a Ki [3] of 929 nM, an IC50 [4] of 360 nM and an IC50 (MIA PaCa-2) of 604 nM. For the same compound, the Ki (Aurora kinase B) was 13 nM, the Ki [5] was 432 nM and the Ki [6] was 2800 nM. For the same compound, the IC50 (A2780) was 303 nM.

In the case of `Cc1nc(C)c(-c2ccnc(Nc3ccc(N4CCN(S(C)(=O)=O)CC4)cc3)n2)s1`, the Ki (Aurora kinase A) is reported as 9.2 nM, the Ki [1] is reported as > 10000 nM and the Ki [2] is reported as 1470 nM. The Ki [3] was > 10000 nM, the IC50 [4] was 1110 nM and the IC50 (MIA PaCa-2) was 608 nM. The Ki (Aurora kinase B) was 18 nM, the Ki [5] was 3970 nM and the Ki [6] was > 10000 nM. The IC50 (A2780) was 298 nM.

In the case of `Cc1nc(N)sc1-c1ccnc(Nc2cccc([N+](=O)[O-])c2)n1`, the inhibition (U2OS [8]) is reported as “Active”, the Activity (U2OS [25]) is reported as “Active” and the Activity (MCF7 [26]) is reported as “Active”. The IC50 (MIA PaCa-2) was 139 nM and the IC50 (A2780) was 48 nM.
